Values of other authors, collected in patent publication US20050288375A1, “Method and composition for treating neurodegenerative disorders” (Myriad Genetics, Incorporated, priority 2003, published 2005).

Legend:
[1] = rofecoxib at 25 mg daily; naproxen in the same trial
[2] = system: brain cells after cerebral ischemia; details: rats
[3] = not given; remark: listed apart in the source

Row | Structure (SMILES) | efficacy for treating AD [1] | side effects at high doses | other results
1 | COc1ccc2cc([C@H](C)C(=O)O)ccc2c1 [Naproxen] | failed to show efficacy |  | 
2 | c1ccc(C2(N3CCCCC3)CCCCC2)cc1 [PCP, Phencyclidine] |  |  | destruction of brain cells after cerebral ischemia [2]: prevent the destruction of brain cells
3 | COc1ccc2c(c1)[C@@]13CCCC[C@H]1[C@@H](C2)N(C)CC3 [dextromethorphan, (+)-3-methoxy-N-methylmorphinan] |  | drowsiness, nausea, and decreased coordination | 
4 | CN1CC[C@]23CCCC[C@H]2[C@H]1Cc1ccc(O)cc13 [dextrorphan, (+)-3-hydroxy-N-methylmorphinan] |  | drowsiness, nausea, and decreased coordination | 
5 | CC12CC3CC(C)(C1)CC(N)(C3)C2 [memantine, 1-amino-3,5-dimethyl adamantane] |  |  | efficacy in treating mild-to-moderate AD [3]: showed efficacy
6 | CS(=O)(=O)c1ccc(C2=C(c3ccccc3)C(=O)OC2)cc1 [rofecoxib] | failed to show efficacy |  | 
